Experimental findings from patent US10350199B2, “3-(1h-pyrrolo[2,3-b]pyridin-2-yl)-1h-indazoles and therapeutic uses thereof” (Samumed, LLC, priority 2015, dated 2019) are described below.

Holding throughout (assay type): cell-based
In assay [1] the test system is Wnt activity (Sp5-Luc reporter, SW480 colon carcinoma cells). Nature of the assay: Wnt activity screening assay, Sp5-Luc reporter gene in SW480 cells. To be noted: Homo sapiens; for inhibition at 10 µM: SW480, read-out: percent inhibition at 10 μM; for EC50: Sp5-Luc reporter, SW480 cells, overnight incubation. From the text: The screening assay for Wnt activity is described as follows. Reporter cell lines can be generated by stably transducing cancer cell lines (e.g., colon cancer) or primary cells (e.g., IEC-6 intestinal cells) with a lentiviral construct that includes a Wnt-responsive promoter driving expression of the firefly luciferase gene.
SW480 colon carcinoma cells were transduced with a lentiviral vector expressing luciferase with a human Sp5 promoter consisting of a sequence of eight TCF/LEF binding sites. SW480 cells stably expressing the Sp5-Luc reporter gene and a hygromycin resistance gene were selected by treatment with 150 μg/mL of hygromycin for 7 days. These stably transduced SW480 cells were expanded in cell culture and used for all further screening activities. […] For Sp5-Luc reporter gene assays, the cells were plated at 4,000 cells/well in 384-well plates with medium containing 1% fetal bovine serum and incubated overnight at 37° C. and 5% CO2. Following incubation, 20 μl of BrightGlo luminescence reagent (Promega) was added to each well of the 384-well assay plates. The plates were placed on an orbital shaker for 2 min and then luminescence was quantified using the Envision (Perkin Elmer) plate reader. Readings were normalized to DMSO only treated cells, and normalized activities were utilized for EC50 calculations using the dose-response log (inhibitor) vs. response -variable slope (four parameters) nonlinear regression feature available in GraphPad Prism 5.0 (or Dotmatics).
Background: Reporter assays use an easily measured gene product as a stand-in for the process of interest.

Assay [2] relates to SW480 colon cancer cells. Briefly: Cell viability assay (CellTiter-Blue), SW480 cells, four days. As to conditions: Homo sapiens; for EC50: 96 h, SW480 cell viability, four days, CellTiter-Blue; for inhibition at 10 µM: SW480, read-out: percent inhibition at 10 μM. As for the experimental part:
Representative compounds were screened using the following assay procedure to assess the effect on cell viability as described below.
Approximately 2×10^3 SW480 colon cancer cells were seeded into each well and allowed to incubate in the presence or absence of compound for four days at 37° C./5% CO2. Eight replicates of DMSO-treated cells served as controls and cells treated with compound were performed in duplicate.
After incubation, 20 μL of CellTiter-Blue (Promega) was added to each well allowed to incubate for approximately 3 hours. This reagent was a buffered solution which contains resazurin, metabolically active cells were able to reduce rezarurin (blue) into resorufin (pink) which was highly fluorescent. This measured fluorescence was used as a readout for cell viability.

Assay [3] concerns primary human fibroblasts derived from IPF patients (LL29 cells) treated with TGF-β1. Nature of the assay: Inhibition of the fibrotic process: αSMA staining in TGF-β1 treated LL29 fibroblasts. To be noted: Fibroblast; for EC50: 96 h, LL29 cells, TGF-β1 20 ng/mL, 4 days, % αSMA positive cells; for inhibition at 10 µM: read-out: percent inhibition at 10 μM. As for the experimental part:
Representative compounds were screened using primary human fibroblasts (derived from IPF patients) treated with TGF-β1 to determine their ability to inhibit the fibrotic process.
LL29 cells are plated at 1,500 cells/well in 80 μL/well F12 medium supplemented with 1% Fetal Bovine Serum. […] Wells treated with TGF-β1 and containing DMSO were used as controls. […] Following incubation for 4 days, SYTOX green nucleic acid stain (Life Technologies [Thermo Fisher Scientific]) was added to the wells at a final concentration of 1 μM and incubated at room temperature for 30 min.

In assay [4] the test system is IL-6 (THP-1 human monocyte cell line). Briefly: IL-6 inhibition in LPS-stimulated THP-1 cells (HTRF). To be noted: for EC50: IL-6 inhibition, LPS-stimulated THP-1 cells, HTRF; for inhibition at 10 µM: THP-1, read-out: percentage in parentheses beside EC50 >10 (IL-6 inhibition). As for the experimental part:
THP-1 cells were cultured in basal media with 1% FBS for 24 hours before the start of the assay. […] THP-1 cells were plated at 5000 cells/well in the 384-well plates and incubated at 37° C. for 2 h. 500 ng/mL of LPS was added after 2 hours and cells were incubated for another 22 hours at 37° C. Plates were spun in a centrifuge for 1 minute at […] and a mixture of anti-IL6 XL665, and anti-IL6 Cryptate diluted in reconstitution buffer (Cisbio Inc.) was added to each well. Following incubation for 3 hrs at room temperature, Homogeneous Time-Resolved Fluorescence (HTRF) was measured using the Envision (Perkin Elmer) at 665 nm and […]. The ratio of fluorescence at 665 nm to 620 nm was used as a readout for IL6 quantification. All samples were processed in duplicate. Readings were normalized to DMSO treated cells and normalized activities were utilized for EC50 calculations using the dose-response log (inhibitor) vs. response -variable slope (four parameters) nonlinear regression feature available in GraphPad Prism 5.0 (or Dotmatics).
Background: TR-FRET usually uses a lanthanide donor and a delayed reading to cut background.

With `c1cc(N2CCCCC2)c2cc(-c3n[nH]c4ccc(-c5cncc(CNCC6CCCC6)c5)cc34)[nH]c2n1` [Compound 193, 1-Cyclopentyl-N-((5-(3-(4-(piperidin-1-yl)-1H-pyrrolo[2,3-b]pyridin-2-yl)-1H-indazol-5-yl)pyridin-3-yl)methyl)methanamine], the inhibition (in general, the relative decrease from the control value, in per cent) at 10 µM was 8% in assay [1], 12.5% in assay [2], 24.9% in assay [3] and 18% in assay [4]. Further, the concentration giving a half-maximal response (EC50) in assay [1], in assay [2], in assay [3] and in assay [4] was > 10 µM each time.
Consider `FC1(F)CCN(Cc2cncc(-c3ccc4[nH]nc(-c5cc6c(N7CCCCC7)ccnc6[nH]5)c4c3)c2)C1` [Compound 194, 5-(5-((3,3-Difluoropyrrolidin-1-yl)methyl)pyridin-3-yl)-3-(4-(piperidin-1-yl)-1H-pyrrolo[2,3-b]pyridin-2-yl)-1H-indazole], for which the inhibition at 10 µM turned out to be 26.2% in assay [1], 18.5% in assay [2] and 33% in assay [4]. Also, the EC50 (commonly the concentration needed to bring the measured effect to its halfway point) in assay [1] is > 10 µM; in assay [2], > 10 µM; in assay [3] it was 5.9 µM; in assay [4], > 10 µM.
In the case of `c1cnc2[nH]c(-c3n[nH]c4ccc(-c5ccncc5)cc34)cc2c1` [Compound 270, 5-(Pyridin-4-yl)-3-(1H-pyrrolo[2,3-b]pyridin-2-yl)-1H-indazole], the inhibition at 10 µM in assay [1] is 45.7%; in assay [2] it was 15.2%; in assay [4], 48.3%. Besides, the half-maximal effective concentration (EC50) in assay [1] was > 10 µM; in assay [2], > 10 µM; in assay [3] it was 6.52 µM; in assay [4], > 10 µM.
`c1ncc(-c2ccc3[nH]nc(-c4cc5c(-c6ccsc6)ccnc5[nH]4)c3c2)cn1` [Compound 307, 5-(Pyrimidin-5-yl)-3-(4-(thiophen-3-yl)-1H-pyrrolo[2,3-b]pyridin-2-yl)-1H-indazole]: the inhibition at 10 µM in assay [1] was 6%; in assay [2], 0%; in assay [3], 0%; in assay [4], 45.5%. Moreover, the concentration giving a half-maximal response (EC50) in assay [1], in assay [2], in assay [3] and in assay [4] was > 10 µM throughout.
`CN(C)Cc1cncc(-c2ccc3[nH]nc(-c4cc5c(-c6ccoc6)ccnc5[nH]4)c3c2)c1` [Compound 321, 1-(5-(3-(4-(Furan-3-yl)-1H-pyrrolo[2,3-b]pyridin-2-yl)-1H-indazol-5-yl)pyridin-3-yl)-N,N-dimethylmethanamine]: the inhibition at 10 µM stood at 3.7% in assay [1], 7.9% in assay [2] and 19% in assay [4]. The concentration giving a half-maximal response (EC50) is > 10 µM in assay [1], > 10 µM in assay [2], 1.37 µM in assay [3] and > 10 µM in assay [4].
As to `c1ccc(-c2ccc3[nH]nc(-c4cc5c(-c6ccoc6)ccnc5[nH]4)c3c2)nc1` [Compound 336, 3-(4-(Furan-3-yl)-1H-pyrrolo[2,3-b]pyridin-2-yl)-5-(pyridin-2-yl)-1H-indazole], the inhibition at 10 µM in assay [1] came to 11%; in assay [2], 0%; in assay [3] it was 0%; in assay [4], 45.1%. Besides, the EC50 in assay [1], in assay [2], in assay [3] and in assay [4] was > 10 µM each time.
Turning to `CC(C)CC(=O)Nc1cncc(-c2ccc3[nH]nc(-c4cc5c(-c6cccs6)ccnc5[nH]4)c3c2)c1` [Compound 338, 3-Methyl-N-(5-(3-(4-(thiophen-2-yl)-1H-pyrrolo[2,3-b]pyridin-2-yl)-1H-indazol-5-yl)pyridin-3-yl)butanamide], the EC50 was 0.332 µM in assay [1], 0.747 µM in assay [2], 0.58 µM in assay [3] and 0.047 µM in assay [4].
On to `CC(C)(C)C(=O)Nc1cncc(-c2ccc3[nH]nc(-c4cc5c(-c6cccs6)ccnc5[nH]4)c3c2)c1` [Compound 344, N-(5-(3-(4-(Thiophen-2-yl)-1H-pyrrolo[2,3-b]pyridin-2-yl)-1H-indazol-5-yl)pyridin-3-yl)pivalamide], for which the EC50 in assay [1] is 0.215 µM; in assay [2] it was 0.606 µM; in assay [3] it was > 10 µM; in assay [4] it was 0.053 µM. Further, the inhibition at 10 µM in assay [3] came out at 0%.
`CN(C)Cc1cncc(-c2ccc3[nH]nc(-c4cc5c(-c6cccs6)ccnc5[nH]4)c3c2)c1` [Compound 349, N,N-Dimethyl-1-(5-(3-(4-(thiophen-2-yl)-1H-pyrrolo[2,3-b]pyridin-2-yl)-1H-indazol-5-yl)pyridin-3-yl)methanamine]: the EC50 in assay [1] is 3.85 µM; in assay [2], 4.64 µM; in assay [3], 0.874 µM; in assay [4], 0.091 µM.
The matching figures for `CC(C)(C)CC(=O)Nc1cncc(-c2ccc3[nH]nc(-c4cc5c(-c6cccs6)ccnc5[nH]4)c3c2)c1` [Compound 352, 3,3-Dimethyl-N-(5-(3-(4-(thiophen-2-yl)-1H-pyrrolo[2,3-b]pyridin-2-yl)-1H-indazol-5-yl)pyridin-3-yl)butanamide]: 0.432 µM, 0.872 µM, 0.355 µM and 0.073 µM.
As to `CCCC(=O)Nc1cncc(-c2ccc3[nH]nc(-c4cc5c(-c6cccs6)ccnc5[nH]4)c3c2)c1` [Compound 353, N-(5-(3-(4-(Thiophen-2-yl)-1H-pyrrolo[2,3-b]pyridin-2-yl)-1H-indazol-5-yl)pyridin-3-yl)butyramide], the EC50 is 0.04 µM in assay [1], 1.3 µM in assay [2], 5.08 µM in assay [3] and > 10 µM in assay [4]. In addition, the inhibition at 10 µM in assay [4] was 37.5%.
Take `c1ccc(-c2ccc3[nH]nc(-c4cc5c(-c6cccs6)ccnc5[nH]4)c3c2)nc1` [Compound 364, 5-(Pyridin-2-yl)-3-(4-(thiophen-2-yl)-1H-pyrrolo[2,3-b]pyridin-2-yl)-1H-indazole]: the 50% effective concentration (EC50) is 3.38 µM in assay [1], 1.14 µM in assay [2], 2.2 µM in assay [3] and 1.57 µM in assay [4].
On to `Fc1ccc(-c2ccnc3[nH]c(-c4n[nH]c5ccc(C6=CCNCC6)cc45)cc23)cc1` [Compound 522, 3-(4-(4-Fluorophenyl)-1H-pyrrolo[2,3-b]pyridin-2-yl)-5-(1,2,3,6-tetrahydropyridin-4-yl)-1H-indazole], for which the EC50 in assay [1] is 3.25 µM; in assay [2] it was > 10 µM; in assay [3] it was 3.86 µM; in assay [4], > 10 µM. For the same compound, the values for the inhibition at 10 µM in assay [2] and in assay [4] were 19.2% and 48.7%, respectively.
Regarding `CN(C)CCOc1cncc(-c2ccc3[nH]nc(-c4cc5c(-c6ccc(F)cc6)ccnc5[nH]4)c3c2)c1` [Compound 531, 2-((5-(3-(4-(4-Fluorophenyl)-1H-pyrrolo[2,3-b]pyridin-2-yl)-1H-indazol-5-yl)pyridin-3-yl)oxy)-N,N-dimethylethan-1-amine], the inhibition at 10 µM in assay [1] was determined as 2.3%; in assay [2] it was 4.1%; in assay [3], 15.6%; in assay [4] it was 0%. In addition, the EC50 in assay [1], in assay [2], in assay [3] and in assay [4] was > 10 µM in each case.
